We go through 12 molecules from patent US7098001B2, “Polypeptides having dipeptidyl aminopeptidase activity and nucleic acids encoding same” (Novozymes, Inc., priority 1997, dated 2006).

Holding throughout (assay type): biochemical
The target in series [1] is dipeptidyl aminopeptidase I (Aspergillus oryzae, UniProt Q2UH35). Put plainly: relative activity on mono-, di- and tri-peptide para-nitroanilide substrates. The note with it: enzyme diluted 100-fold, pH 7.5, ambient temperature; for Activity (mOD/min): substrate 2 mg/ml stock. The method, then:
The relative activity of various mono-, di-, and tri-peptide para-nitroanilide substrates were assayed relative to Ala-Pro-pNA with the purified dipeptidyl aminopeptidase I diluted 100-fold in 50 mM sodium phosphate pH 7.5 buffer. Each substrate was dissolved in DMSO to a concentration of 100 mg/ml and then diluted 50 fold in 50 mM sodium phosphate pH 7.5 buffer to 2 mg/ml. The assay was performed by mixing 100 μl of the substrate solution with 100 μl of the dipeptidyl aminopeptidase I solution and monitoring the change in absorbance at 405 nm and ambient temperature.

Substrate in series [2]: C[C@H](N)C(=O)N[C@@H](C)C(=O)Nc1ccc([N+](=O)[O-])cc1
In words: kinetic parameters (Lineweaver-Burke plot) for dipeptidyl aminopeptidase I substrates. The note with it: other: 50 mM sodium phosphate pH 7.5. The protocol:
(§1) The kinetic parameters for various dipeptidyl aminopeptidase I substrates was determined using the following protocol. The substrates included Ala-Pro-pNA, Asp-Pro-pNA, and Ala-Ala-pNA. Purified dipeptidyl aminopeptidase I with an A280 of 1.521 was diluted 25-fold for Ala-Pro-pNA, 20-fold for Asp-Pro-pNA, and 10-fold for Ala-Ala-pNA in water. Each substrate was dissolved in DMSO to a concentration of 100 mg/ml and then diluted 50 fold in 50 mM sodium phosphate pH 7.5 buffer to 2 mg/ml. In a 96 well microtiter plate, 10 μl of purified dipeptidyl aminopeptidase I was incubated with each substrate as follows except the 200 μl substrate assay was not performed with the Asp-Pro-pNA substrate, and the absorbance at 405 nm was measured for 3 minutes: • 1. 200 μl of 2 mg/ml substrate+0 μl of 50 mM sodium phosphate buffer pH 7.5 • 2. 100 μl of 2 mg/ml substrate+100 μl of 50 mM sodium phosphate buffer pH 7.5 • 3. 50 μl of 2 mg/ml substrate +150 μl of 50 mM sodium phosphate buffer pH 7.5 • 4. 25 μl of 2 mg/ml substrate+175 μl of 50 mM sodium phosphate buffer pH 7.5 • 5. 10 μl of 2 mg/ml substrate+190 μl of 50 mM sodium phosphate buffer pH 7.5 • 6. 5 μl of 2 mg/ml substrate+195 μl of 50 mM sodium phosphate buffer pH 7.5

Substrate in series [3]: C[C@H](N)C(=O)N1CCC[C@H]1C(=O)Nc1ccc([N+](=O)[O-])cc1
Described as above. Conditions: other: 50 mM sodium phosphate pH 7.5. The protocol: as §1

Substrate in series [4]: N[C@@H](CC(=O)O)C(=O)N1CCC[C@H]1C(=O)Nc1ccc([N+](=O)[O-])cc1
Described as above. Conditions: other: 50 mM sodium phosphate pH 7.5. The method, then: as §1

Where a SMILES comes first, the peptide text is derived from it. The star is where a group is joined. pNA = O=[N+]([O-])c1ccc(N*)cc1

In the case of `NCC(=O)N[C@@H](CCCN=C(N)N)C(=O)Nc1ccc([N+](=O)[O-])cc1` [Gly-Arg-pNA] (H-Gly-Arg-pNA), in series [1], the “Percent Activity Retative to Ala-Pro-pNA” value is on record as 0% and the “Activity (mOD/min)” value is 0 mOD/min.
The matching figures for `NCC(=O)N1CCCC1C(=O)Nc1ccc([N+](=O)[O-])cc1` (stereo not drawn) [Gly-Pro-pNA]: 51.25% and 125 mOD/min.
The matching figures for `NCC(=O)N[C@@H](CCC(=O)O)C(=O)Nc1ccc([N+](=O)[O-])cc1` [Gly-Glu-pNA] (H-Gly-Glu-pNA): 0% and below 2 mOD/min.
The matching figures for `N[C@@H](CC(=O)O)C(=O)N1CCC[C@H]1C(=O)Nc1ccc([N+](=O)[O-])cc1` [Asp-Pro-pNA] (H-Asp-Pro-pNA): 29% and 70.95 mOD/min.
As for `C[C@H](N)C(=O)Nc1ccc([N+](=O)[O-])cc1` [Ala-pNA], in series [1], the “Percent Activity Retative to Ala-Pro-pNA” value came out at 0% and the “Activity (mOD/min)” value worked out at 0 mOD/min.
Regarding `CC(C)C[C@H](N)C(=O)Nc1ccc([N+](=O)[O-])cc1` [Leu-pNA], in series [1], the “Percent Activity Retative to Ala-Pro-pNA” value worked out at 0% and the “Activity (mOD/min)” value came to 0 mOD/min.
The matching figures for `CC(C)[C@H](N)C(=O)N[C@@H](C)C(=O)Nc1ccc([N+](=O)[O-])cc1` [Val-Ala-pNA] (H-Val-Ala-pNA): 20.3% and 49.5 mOD/min.
The matching figures for `N=C(N)NCCC[C@H](N)C(=O)N1CCC[C@H]1C(=O)Nc1ccc([N+](=O)[O-])cc1` [Arg-Pro-pNA] (H-Arg-Pro-pNA): 42.17% and 103 mOD/min.
The matching figures for `C[C@H](N)C(=O)N1CCC[C@H]1C(=O)Nc1ccc([N+](=O)[O-])cc1` [Ala-Pro-pNA] (H-Ala-Pro-pNA): 100% and 244 mOD/min.
Regarding `C[C@H](N)C(=O)N[C@@H](C)C(=O)Nc1ccc([N+](=O)[O-])cc1` [Ala-Ala-pNA] (H-Ala-Ala-pNA), in series [1], the “Percent Activity Retative to Ala-Pro-pNA” value came to 12.4% and the “Activity (mOD/min)” value was 30.2 mOD/min.
For the molecule `C[C@H](N)C(=O)N[C@@H](C)C(=O)N1CCC[C@H]1C(=O)Nc1ccc([N+](=O)[O-])cc1` [Ala-Ala-Pro-pNA] (H-Ala-Ala-Pro-pNA), in series [1], the “Percent Activity Retative to Ala-Pro-pNA” value is reported as 4.3% and the “Activity (mOD/min)” value is on record as 10.6 mOD/min.

B1: dipeptidyl aminopeptidase I (Aspergillus oryzae RIB40) (protein)
chain: LDVPRKPHAPTGEGSKRLTFNETVVKQAITPTSRSVQWLSGAEDGSYVYAAEDGSLTIENIVTNESRTLIPADKIPTGKEAFNYWIHPDLSSVLWASNHTKQYRHSFFADYYVQDVESLKSVPLMPDQEGDIQYAQWSPVGNTIAFVRENDLYVWDNGTVTRITDDGGPDMFHGVPDWIYEEEILGDRYALWFSPDGEYLAYLSFNETGVPTYTVQYYMDNQEIAPAYPWELKIRYPKVSQTNPTVTLSLLNIASKEVKQAPIDAFESTDLIIGEVAWLTDTHTTVAAKAFNRVQDQQKVVAVDTASNKATVISDRDGTDGWLDNLLSMKYIGPIKPSDKDAYYIDISDHSGWAHLYLFPVSGGEPIPLTKGDWEVTSILSIDQERQLVYYLSTQHHSTERHLYSVSYSTFAVTPLVDDTVAAYWSASFSANSGYYILTYGGPDVPYQELYTTNSTKPLRTITDNAKVLEQIKDYALPNITYFELPLPSGETLNVMQRLPPGFSPDKKYPILFTPYGGPGAQEVTKRWQALNFKAYVASDSELEYVTWTVDNRGTGFKGRKFRSAVTRQLGLLEAEDQIYAAQQAANIPWIDADHIGIWGWSFGGYLTSKVLEKDSGAFTLGVITAPVSDWRFYDSMYTERYMKTLSTNEEGYETSAVRKTDGFKNVEGGFLIQHGTGDDNVHFQNSAALVDLLMGDGVSPEKLHSQWFTDSDHGISYHGGGVFLYKQLARKLYQEKNRQTQVLMHQWTKKDLEE
For B1, the Km (in general, the substrate concentration at which the rate is half of its maximum) in series [2] was 1080 µM; in series [3] it was 140 µM; in series [4], 632 µM. The catalytic constant (kcat) (in general, the number of substrate molecules converted per active site and unit of time at saturation) came out at 1.775 s⁻¹ in series [2], 9.605 s⁻¹ in series [3] and 4.072 s⁻¹ in series [4].
